Patent US12357652B2, “Formulations of phosphoramidate derivatives of nucleoside drugs” (priority 2015, dated 2025)
Like-named read-outs stand apart in the source and are kept apart here.

Key:
[1] = Stability of 100 mg/ml NUC-3373 surfactant solution; type: physicochemical
Procedure: The successful development of the Diluent Solution to enable preparation of the NUC-1031 aqueous formulation prompted its development for an aqueous formulation of NUC-3373. An aqueous NUC-3373 formulation was developed by adding 6.7 ml of a 250 mg/ml solution of NUC-3373 in 80% DMA:20% 0.9% saline to 10 ml diluent solution to generate a 100 mg/ml NUC-3373 surfactant solution (see Table 4), prior to subsequent dilution into an infusion bag.

cancer models = settings: versus 5-fluorouracil; cited from earlier work
[2] = Solubility of NUC-3373 in a range of pharmaceutically relevant solvents; type: physicochemical
Source text: The solubility of NUC-3373 (mixture of diastereoisomers) in a range of solvents is shown in […]

[3] = versus 5-FU; cited from earlier work

## C[C@H](NP(=O)(OC[C@H]1O[C@@H](n2cc(F)c(=O)[nH]c2=O)CC1O)Oc1cccc2ccccc12)C(=O)OCc1ccccc1 (stereo partly drawn) [NUC-3373, 5-fluoro-2′-deoxyuridine-5′-O-[1-naphthyl (benzoxy-L-alaninyl)] phosphate]
[1]; 0 hours, 5° C.
  Assay content: 105.5 mg/mL
  Purity: 96.1 % area
  pH: 7.8
[1]; 0 hours, 20° C.
  Assay content: 104.8 mg/mL
  Purity: 96.2 % area
  pH: 7.8
[1]; 8 hours, 5° C.
  Assay content: 102.5 mg/mL
  Purity: 96.2 % area
  pH: 7.9
[1]; 8 hours, 20° C.
  Assay content: 100.7 mg/mL
  Purity: 96.1 % area
  pH: 7.8
[1]; 24 hours, 5° C.
  Assay content: 103.7 mg/mL
  Purity: 96.1 % area
  pH: 7.9
[1]; 24 hours, 20° C.
  Assay content: 99.1 mg/mL
  Purity: 96.1 % area
  pH: 7.8
[1]; 48 hours, 5° C.
  Assay content: 102.4 mg/mL
  Purity: 96.1 % area
  pH: 7.9
[1]; 48 hours, 20° C.
  Assay content: 99.4 mg/mL
  Purity: 96.2 % area
  pH: 7.9
[1]; for 48 hours at 5° C. and 20° C.
  Stability: stable
Cancer models
  Activity in vitro: outstanding and far superior to the results obtained with 5-fluorouracil
[2]; DMA, organic solvent or mixture, read-out: Solubility
  Solubility: 950 mg/mL
[2]; DMSO, organic solvent or mixture, read-out: Solubility
  Solubility: 948 mg/mL
[2]; NMP, organic solvent or mixture, read-out: Solubility
  Solubility: 705 mg/mL
[2]; PEG 400, organic solvent or mixture, read-out: Solubility
  Solubility: 422 mg/mL
[2]; Water
  Solubility: extremely low
[2]; ethanol, organic solvent or mixture, read-out: Solubility
  Solubility: 778 mg/mL
[2]; propylene glycol, organic solvent or mixture, read-out: Solubility
  Solubility: 449 mg/mL
[2]; water, read-out: Solubility
  Solubility: < 2 mg/mL
[3]
  Tolerability: significantly better tolerated than 5-FU
